In PubChem BioAssay (NCI):
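Cells were grown in 96-well plates and exposed to each compound for 48 hours at five concentrations; endpoints were interpolated linearly between bracketing concentrations, or set to the highest concentration if not reached. Abbreviation: GI50, concentration required for 50% inhibition of growth. Definition used: TGI = concentration required for complete inhibition of growth.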

Legend:
Test in all cases: NCI anticancer screen, dose series, 48 h
SW-620 colon = system: SW-620 colon
NCI-H23 lung = system: NCI-H23 lung
SR leukemia = system: SR leukemia
UACC-62 melanoma = system: UACC-62 melanoma
A498 renal = system: A498 renal
KM12 colon = system: KM12 colon
HCT-116 colon = system: HCT-116 colon
CAKI-1 renal = system: CAKI-1 renal
OVCAR-5 ovarian = system: OVCAR-5 ovarian
UACC-257 melanoma = system: UACC-257 melanoma

Row | SMILES | TGI (SW-620 colon) | TGI (NCI-H23 lung) | TGI (SR leukemia) | TGI (UACC-62 melanoma) | TGI (A498 renal) | TGI (KM12 colon) | TGI (HCT-116 colon) | TGI (CAKI-1 renal) | TGI (OVCAR-5 ovarian) | TGI (UACC-257 melanoma) | GI50 (SW-620 colon) | GI50 (NCI-H23 lung) | GI50 (SR leukemia) | GI50 (UACC-62 melanoma) | GI50 (A498 renal) | GI50 (KM12 colon) | GI50 (HCT-116 colon) | GI50 (CAKI-1 renal) | GI50 (UACC-257 melanoma)
1 | O=C(NN1CCCCC1)c1cc2cc(CCl)ccc2oc1=O | 60.7 µM | 32.5 µM | 67.8 µM | 85.8 µM | > 100 µM | 49.4 µM | 38 µM | 33.3 µM | 31.8 µM | 59.1 µM | – | – | – | – | – | – | – | – | –
2 | CN(C)c1ccc(/C=C2\C[C@H]3[C@@H]4CC=C5C[C@@H](O)CC[C@]5(C)[C@H]4CC[C@]3(C)[C@H]2O)cc1 | 67.3 µM | 35.6 µM | > 100 µM | 30.2 µM | 31.5 µM | > 100 µM | 28.1 µM | – | 36.2 µM | 35.7 µM | – | – | – | – | – | – | – | – | –
3 | Cc1ccc([N+](=O)[O-])cc1S(=O)(=O)Nc1ccc(C2=NN(C(=O)c3ccccc3)C(c3ccccc3O)C2)cc1 (stereo not drawn) | > 100 µM | 35.5 µM | > 100 µM | – | 60.6 µM | > 100 µM | 28.4 µM | 91.9 µM | 60.6 µM | 51.8 µM | – | – | – | – | – | – | – | – | –
4 | C/C=C/C(O)P(=O)(OC)OC (stereo not drawn) | 0.982 µM | 1.2 µM | > 100 µM | 0.785 µM | 0.955 µM | 0.936 µM | 0.835 µM | 1.85 µM | 1.22 µM | 0.792 µM | – | – | – | – | – | – | – | – | –
5 | Clc1cccc(/C=c2\nc(-c3ccccc3)n3c2nc2ccccc23)c1 | > 100 µM | > 100 µM | > 100 µM | > 100 µM | > 100 µM | > 100 µM | > 100 µM | > 100 µM | > 100 µM | > 100 µM | – | – | – | – | – | – | – | – | –
6 | COc1cc2cc[n+](C)c(Cc3ccc(Oc4cc(Cc5c6cc(OC)c(OC)cc6cc[n+]5C)ccc4OC)cc3)c2cc1OC | > 100 µM | > 100 µM | > 100 µM | > 100 µM | > 100 µM | > 100 µM | > 100 µM | > 100 µM | > 100 µM | > 100 µM | – | – | – | – | – | – | – | – | –
7 | Nc1ccc(Cc2ccc(N)c(C(=O)O)c2)cc1C(=O)O | > 100 µM | > 100 µM | > 100 µM | > 100 µM | > 100 µM | > 100 µM | > 100 µM | > 100 µM | > 100 µM | > 100 µM | – | – | – | – | – | – | – | – | –
8 | C=C(CN(C)C)C(=O)c1ccccc1Cl | 27.7 µM | 54.6 µM | > 81.7 µM | 34.2 µM | > 96 µM | > 75 µM | 34 µM | 30.9 µM | > 60.4 µM | 37.5 µM | – | – | – | – | – | – | – | – | –
9 | O=S(C(c1ccccc1)=P(c1ccccc1)(c1ccccc1)c1ccccc1)c1ccc(Cl)cc1 (stereo not drawn) | > 100 µM | > 100 µM | > 100 µM | – | 37.1 µM | 57.2 µM | 79.5 µM | > 100 µM | > 100 µM | > 100 µM | – | – | – | – | – | – | – | – | –
10 | COc1ccc(-n2nc(C(=O)c3ccccc3)c3nn4c(=O)cc(-c5ccccc5)nc4nc32)cc1 | > 100 µM | > 100 µM | > 100 µM | 97.6 µM | > 100 µM | > 100 µM | > 100 µM | > 100 µM | – | > 100 µM | 44.3 µM | 67.2 µM | 24.9 µM | 28.4 µM | 66.2 µM | 46.5 µM | > 100 µM | > 100 µM | 42.6 µM
11 | CN(CCCNC(=O)c1nn(-c2ccccc2)c2c1Cc1ccccc1-2)CCCNC(=O)c1nn(-c2ccccc2)c2c1Cc1ccccc1-2 | 2.63 µM | 3.03 µM | 1.42 µM | 3.26 µM | 3.15 µM | – | 2.87 µM | 2.46 µM | 3.26 µM | 3.28 µM | – | – | – | – | – | – | – | – | –
12 | CN(CCc1ccccn1)c1ccc2c(c1)Cc1ccccc1-2 | > 100 µM | > 100 µM | – | > 100 µM | 50.6 µM | 37.7 µM | > 100 µM | > 100 µM | > 100 µM | 92.2 µM | – | – | – | – | – | – | – | – | –
13 | O=C1CNc2cc(N3CCCCC3)ccc2N1 | > 100 µM | > 100 µM | > 100 µM | > 100 µM | – | > 100 µM | – | – | > 100 µM | > 100 µM | – | – | – | – | – | – | – | – | –
14 | Cc1c2ccccc2cc2cccc[n+]12 | > 100 µM | 65.5 µM | > 100 µM | > 100 µM | – | 53 µM | > 100 µM | – | > 100 µM | 43.3 µM | – | – | – | – | – | – | – | – | –
15 | CC(CCCCNC(=O)OC(C)(C)C)NC(=O)NC(C)CCCCNC(=O)OC(C)(C)C (stereo not drawn) | > 100 µM | > 100 µM | > 100 µM | > 100 µM | > 100 µM | > 100 µM | > 100 µM | > 100 µM | > 100 µM | > 100 µM | – | – | – | – | – | – | – | – | –
16 | CS(=O)(=O)Nc1ccc(NCc2cnc3ccc4[nH]cccc4c23)cc1 | > 100 µM | 59.6 µM | 47.7 µM | 30.7 µM | 51.8 µM | 36.7 µM | 51.8 µM | 65 µM | > 100 µM | 51.9 µM | – | – | – | – | – | – | – | – | –
